Data reported in patent US4160097A, “1-(2-Phenylureylene)imidazoles” (Westwind Pharmaceuticals, Inc., priority 1977, dated 1979).
Converted amounts (≈) assume the structure as drawn.

Legend:
[1] = tested on: carrageenan rat paw edema; assay: Rat Paw Edema Assay, Oral Dosing; assay type: in vivo; conditions: 4 h, four hours after drug, read-out: % Difference from Control; for change in vivo at 100 mg/kg: 100 mg/kg oral
Protocol: (§1) The anti-inflammatory activity of representative compounds of this invention was determined by the rat paw edema assay both by local administration (Table XI below) and by oral dosing (Table XII below). For the oral dosing, the procedure of C. A. Winter, E. A. Risley and G. W. Nuss, Proc. Soc. Exp. Biol. Med. III, 544 (1962) was employed with measurement taken four hours after the drug was administered. The local administration tests were carried out similarly except the irritant (carrageenan) and the test compound were injected simultaneously at time zero.
(§2) Tables XI and XII report the anti-inflammatory activity of the compounds tested as % difference in the edema or swelling as compared with the control. These Tables also give the response in many instances of more than one dose level of the same drug.

[2] = tested on: Trichophyton mentagrophytes; assay: Antifungal activity, agar dilution method; assay type: cell-based, Trichophyton mentagrophytes (ATCC No. 8757 and 9129); conditions: T. mentagrophytes, read-out: Parts Per Million Inhibitions of T. mentagrophytes
Protocol: (§3) various compounds of this invention display antifungal and anti-yeast activity.
(§4) In Table IX below are listed the antifungal activity of a number of compounds encompassed in the present invention. These were determined by the agar dilution method as described in Chapters 2 and 3 of Methods in Microbiology, Vol. 7B, edited by J. R. Norris and D. W. Ribbons, Academic Press, New York, 1972.

[3] = tested on: cell-mediated immune response to the antigen, Mycobacterium tuberculosis H37Ra; assay: delayed hypersensitivity test; assay type: in vivo, mouse; conditions: Mus musculus, sc; mice; dose reducing edema of cell-mediated immune response by 60% vs control; read-out: D.H.S. (ED60)
Protocol: The immunosuppressant activities of the compounds of this invention were determined via the hemolysin test in mice and by the delayed hypersensitivity test. The hemolysin test used is that described in Methods in Immunology, edited by D. H. Campbell et al, W. A. Benjamin, New York 1963 pages 172-175, and measures humeral or antibody response. The delayed hypersensitivity test measures the effect of a test compound on the ability of a subject mouse to mount a cell-mediated immune response to the antigen, Mycobacterium tuberculosis H37Ra. The mouse is sensitized to the antigen by subcutaneous administration in the base of the tail. The development of the delayed hypersensitivity response may be measured at any time beginning six days after sensitization but is usually done on the ninth day as follows: The right hind paw is injected with purified protein derivative (tuberculin) while the left hind paw (control) receives physiological saline. Both paw volumes are measured after twenty-four hours and significant increase in the volume of the right hand paw is taken as a measure of an effective delayed hypersensitivity response. All compounds were administered by the subcutaneous route.
The D.H.S. (ED60) mg./kg. s.c. value appearing in column 3 is an expression of the effectiveness of the drug in reducing the edema that accompanies the cell-mediated immune response. It is a measure of the number of milligrams per kilogram of body weight of the drug administered subcutaneously which is required to reduce the edema of the cell-mediated immune response by 60% when compared to the control.

Trichophyton ajelloi = assay: Antifungal activity, agar dilution method; assay type: cell-based; conditions: Arthroderma uncinatum, T. ajelloi, read-out: Parts Per Million Inhibitions of T. ajelloi
Protocol: as §3, §4

[4] = tested on: humeral or antibody response; assay: hemolysin test in mice; assay type: in vivo; conditions: Mus musculus, sc, dose reducing antibody activity by 50% vs control, read-out: HL(ED50)
Trichophyton rubrum = assay: Antifungal activity, agar dilution method; assay type: cell-based, Trichophyton rubrum (ATCC No. 10218 and 14001); conditions: T. rubrum, read-out: Parts Per Million Inhibitions of T. rubrum
Protocol: as §3, §4

[5] = tested on: carrageenan rat paw edema; assay: Rat Paw Edema Assay, Local Administration; assay type: in vivo; conditions: read-out: % Difference from Control; for change in vivo at 100 mg/kg: local administration
Protocol: as §1, §2

| SMILES | change in vivo at 100 mg/kg [1] [%] | MIC [2] [µg/mL] | MIC (Trichophyton ajelloi) [µg/mL] | MIC (Trichophyton rubrum) [µg/mL] | other results |
| --- | --- | --- | --- | --- | --- |
| Cc1ccc(-c2nc3ccccc3n3ccnc23)cc1 [Compound 134] | -43 | 16 (≈ 61.7 µM) | 100 (≈ 386 µM) | – | ED60 [3]: 7.2 mg/kg; ED50 [4]: 0.5 mg/kg |
| Brc1ccccc1-c1nc2ccccc2n2ccnc12 [Compound 145] | – | 100 (≈ 308 µM) | 100 (≈ 308 µM) | 100 (≈ 308 µM) | – |
| FC(F)(F)c1nc2ccccc2n2ccnc12 [Compound 122] | -61 | – | – | 32 (≈ 135 µM) | change in vivo at 100 mg/kg [5]: -61% |
| COc1ccc(Nc2nc3ccccc3n3ccnc23)cc1 [Compound 186] | – | 100 (≈ 344 µM) | 100 (≈ 344 µM) | 100 (≈ 344 µM) | – |
| c1ccc2c(c1)nc(C1CCCCC1)c1nccn12 [Compound 129] | -30 | 16 (≈ 63.7 µM) | 16 (≈ 63.7 µM) | 8 (≈ 31.8 µM) | – |
| Fc1ccccc1-c1nc2ccccc2n2ccnc12 [Compound 173] | – | 100 (≈ 380 µM) | 100 (≈ 380 µM) | 100 (≈ 380 µM) | ED60 [3]: 40 mg/kg |
| O=[N+]([O-])c1ccccc1Nc1nc2ccccc2n2ccnc12 [Compound 187] | – | – | 100 (≈ 328 µM) | 100 (≈ 328 µM) | – |
| C(=Cc1nc2ccccc2n2ccnc12)c1ccccc1 [Compound 127] | – | 16 (≈ 59 µM) | – | 16 (≈ 59 µM) | ED60 [3]: 36 mg/kg; ED50 [4]: > 50 mg/kg |
| c1ccc(OCc2nc3ccccc3n3ccnc23)cc1 [Compound 126] | – | 100 (≈ 363 µM) | 100 (≈ 363 µM) | 100 (≈ 363 µM) | ED60 [3]: > 50 mg/kg; ED50 [4]: 35 mg/kg |
| CCCCCc1nc2ccccc2n2ccnc12 [Compound 114] | -61 | 16 (≈ 66.9 µM) | – | 1 (≈ 4.18 µM) | change in vivo at 0.001 mg ([5]; 1 μg, injected directly into paw): 68.2%; change in vivo at 0.01 mg ([5]; 10 μg, injected directly into paw): -30%; change in vivo at 0.1 mg ([5]; 100 μg, injected directly into paw): -132% |
| COc1ccccc1C(=O)Nc1ccccc1-n1ccnc1 [Compound 58] | – | 100 (≈ 341 µM) | 100 (≈ 341 µM) | 100 (≈ 341 µM) | – |
| Clc1cccc(Nc2nc3ccccc3n3ccnc23)c1 [Compound 179] | – | 100 (≈ 339 µM) | 100 (≈ 339 µM) | 100 (≈ 339 µM) | – |
| COc1cccc(Nc2nc3ccccc3n3ccnc23)c1 [Compound 185] | – | 100 (≈ 344 µM) | 100 (≈ 344 µM) | 100 (≈ 344 µM) | – |
| Fc1ccc(Nc2nc3ccccc3n3ccnc23)cc1 [Compound 182] | – | – | – | 100 (≈ 359 µM) | ED50 [4]: 1.1 mg/kg |
| CC(C)(C)c1ccc(-c2nc3ccccc3n3ccnc23)cc1 [Compound 137] | -26 | 100 (≈ 332 µM) | 100 (≈ 332 µM) | – | ED60 [3]: 3.2 mg/kg; ED50 [4]: < 0.125 mg/kg |
| CCCCCCCCCC(=O)Oc1ccc(-c2nc3ccccc3n3ccnc23)cc1 [Compound 165] | – | 100 (≈ 241 µM) | 100 (≈ 241 µM) | 100 (≈ 241 µM) | – |
| O=C(Nc1ccccc1-n1ccnc1)c1ccccc1Cl [Compound 49] | -35 | – | – | – | change in vivo at 100 mg/kg [5]: -35% |
| CCCC(=O)Oc1ccc(-c2nc3ccccc3n3ccnc23)cc1 [Compound 164] | – | 100 (≈ 302 µM) | 100 (≈ 302 µM) | 100 (≈ 302 µM) | – |
| CCCc1nc2ccccc2n2ccnc12 [Compound 112] | -17 | 128 (≈ 606 µM) | – | 64 (≈ 303 µM) | change in vivo at 400 mg/kg ([1]; 400 mg/kg oral): -68% |
| Cc1ccccc1-c1nc2ccccc2n2ccnc12 [Compound 132] | -76 | 100 (≈ 386 µM) | 100 (≈ 386 µM) | – | – |
| CC(=O)Oc1ccc(-c2nc3ccccc3n3ccnc23)cc1 [Compound 163] | – | 100 (≈ 330 µM) | 100 (≈ 330 µM) | 100 (≈ 330 µM) | – |
| CCCCCCCCCC(=O)Nc1ccccc1-n1ccnc1 [Compound 10] | -30 | 16 (≈ 51 µM) | – | 16 (≈ 51 µM) | – |
| COc1cccc(-c2nc3ccccc3n3ccnc23)c1 [Compound 159] | – | 100 (≈ 363 µM) | 100 (≈ 363 µM) | 100 (≈ 363 µM) | ED60 [3]: 27 mg/kg; ED50 [4]: 3 mg/kg |
